By half-life is commonly meant the time needed for the level to fall by half in the phase considered.

Molecules are shown by their SMILES. Like-named read-outs stand apart in the source and are kept apart here.

A short description of this data set: Intravenous administration of nicotine in rats (plasma nicotine, pharmacokinetics). In kind it is in vivo, rat (male Lewis rats, Lew/Mol). The conditions noted are these: rat, 0.15 mg/kg BW. From the text: The plasma values obtained after i.v. administration of nicotine were just like those obtained by intranasal administration analysed for the number of phases.
One phase was recognized corresponding to only one elimination phase.
The model was fitted to the data using weighted least squares algoritm with the weighing factor=1.
The plasma nicotine values as a function of time after i.v. administration of nicotine are shown in the below Table 3 and FIG. 2. Six animals were used in the study. The pharmacokinetic parameters are calculated as described for the data obtained by intranasal administration.

As for `CN1CCCC1c1cccnc1` (stereo not drawn) [nicotine], the concentration at […] (15 minutes after i.v. adm., read-out: Plasma nicotine values, average for 6 rats) was 47 ng/mL; the concentration at […] (75 minutes after i.v. adm., read-out: Plasma nicotine values, average for 6 rats) was 51 ng/mL; the concentration at […] (90 minutes after i.v. adm., read-out: Plasma nicotine values, average for 6 rats) amounted to 38 ng/mL; the concentration at […] (150 minutes after i.v. adm., read-out: Plasma nicotine values, average for 6 rats) came to 36 ng/mL. Further, the concentration at 0.5 h (30 minutes after i.v. adm., read-out: Plasma nicotine values, average for 6 rats) amounted to 61 ng/mL. Further, the concentration at 0.75 h (45 minutes after i.v. adm., read-out: Plasma nicotine values, average for 6 rats) came to 86 ng/mL. In addition, for the setting “60 minutes after i.v. adm., read-out: Plasma nicotine values, average for 6 rats”, the concentration at 1 h amounted to 50 ng/mL. For the same compound, the concentration at 1.75 h (105 minutes after i.v. adm., read-out: Plasma nicotine values, average for 6 rats) came to 38 ng/mL. Besides, the concentration at 2 h (120 minutes after i.v. adm., read-out: Plasma nicotine values, average for 6 rats) stood at 59 ng/mL. Moreover, the concentration at 3 h (180 minutes after i.v. adm., read-out: Plasma nicotine values, average for 6 rats) came out at 22 ng/mL. In addition, the concentration at 3.5 h (210 minutes after i.v. adm., read-out: Plasma nicotine values, average for 6 rats) stood at 25 ng/mL. Under “240 minutes after i.v. adm., read-out: Plasma nicotine values, average for 6 rats”, the concentration at 4 h is 20 ng/mL. The half-life (i.v., SIPHAR, read-out: Half-life (Ke line)) came to 2.6 h. For the same compound, where the note is “i.v., SIPHAR, read-out: Ke, parameter value (converted)”, the k el is 7.33e-05 s⁻¹. Further, the AUC(0-inf) (i.v., trapezoidal rule, read-out: AUC0-.infin. (converted)) is 262 ng·h/mL.

(Values after patent publication US5939100A, “Composition for drug delivery comprising nicotine or a derivative thereof and starch microspheres and method for the manufacturing thereof” (Pharmacia and UpJohn AB, priority 1993, dated 1999).)
